Results taken from US20090227533A1, “miR-34 Regulated Genes and Pathways as Targets for Therapeutic Intervention” (priority 2007, published 2009).

Tests used:
Jurkat = details: cited from earlier work
[1] = test system: lung cancer cells A549, H522, H596, Calu-3, HCC2935, H1650, H460, and H226; test: Alamar Blue proliferation assay, average over eight lung cancer cell lines; format: cell-based, human
Source text: (§1) The inventors assessed the therapeutic effect of hsa-miR-34a for lung cancer by using eight individual lung cancer cell lines. To measure cellular proliferation of lung cancer cells, the following non-small cell lung cancer (NSCLC) cells were used: cells derived from lung adenocarcinoma (A549, H522, Calu-3, HCC2935), cells derived from lung squamous cell carcinoma (H226), cell derived from lung adenosquamous cell carcinoma (H596), cells derived from lung bronchioalveolar carcinoma (H1650), and cells derived from lung large cell carcinoma (H460). Synthetic hsa-miR-34a (Pre-miR™-hsa-miR-34a, Ambion cat. no. AM17100) or negative control (NC) miRNA (Pre-miR™ microRNA Precursor Molecule-Negative Control #2; Ambion cat. no. AM17111) was delivered via lipid-based transfection into A549, H522, H596, Calu-3, HCC2935, H1650, H460 cells and via electroporation into H226 cells.
Lipid-based reverse transfections were carried out in triplicate according to a published protocol (Ovcharenko et al., 2005) and the following parameters: cells (5,000-12,000 per 96 well), 0.1-0.2 μl Lipofectamine™ 2000 (cat. no. 11668-019, Invitrogen Corp., Carlsbad, Calif., USA) in 20 μl OptiMEM (Invitrogen), 30 nM final concentration of miRNA in 100 μl. […]

PPC-1 tumors = test: Histology and immunohistochemistry (Ki-67, caspase 3) of xenograft tumors; format: in vivo, NOD/SCID mice
Method: To gain further insight into the biological status of these cells, immunohistochemistry analyses specific for the proliferation marker Ki-67, as well as caspase 3, an indicator of apoptosis were performed.

[2] = test system: cervical cancer cells (HeLa); details: cited from earlier work
[3] = test system: prostate cancer cells PPC-1, Du145, LNCaP and RWPE2; test: Alamar Blue proliferation assay, average over four prostate cancer cell lines; format: cell-based, human
Source text: The inventors assessed the therapeutic effect of hsa-miR-34a for prostate cancer by using four individual human prostate cancer cell lines. To measure cellular proliferation of prostate cancer cells, the following prostate cancer cell lines were used: PPC-1, derived from a bone metastasis; Du145, derived from a brain metastasis; RWPE2, derived from prostate cells immortalized by human papillomavirus 18 and transformed by the K-RAS oncogene; and LNCaP, derived from a lymph node metastasis (Bello et al., 1997; Pretlow et al., 1993; Stone et al., 1978; Brothman et al., 1991; Horoszewicz et al., 1980). PPC-1 and Du145 cells lack expression of the prostate-specific antigen (PSA) and are independent of androgen receptor (AR) signaling. In contrast, RWPE2 and LNCaP cells test positive for PSA and AR. Cells were transfected with synthetic hsa-miR-34a (Pre-miR™-hsa-miR-34a, Ambion cat. no. AM17100) or negative control miRNA (NC; Pre-miR™ microRNA Precursor Molecule-Negative Control #2; Ambion cat. no. AM17111) in a 96-well format using a lipid-based transfection reagent. […] Proliferation was assessed 4-7 days post-transfection using Alamar Blue™ (Invitrogen) following the manufacturer's instructions. […] Fluorescent light units (FLU) were measured after 3 hours, normalized to the control, and plotted as percent change in proliferation. […]

HeLa = details: cited from earlier work
lung cancer cells (A549) = details: cited from earlier work
[4] = test system: leukemic T cells (Jurkat); details: cited from earlier work
[5] = test system: basal cell carcinoma cells (TE354T); details: cited from earlier work
normal human T cells = details: cited from earlier work
H226 cells = test: Alamar Blue proliferation assay, lung cancer cells (electroporation); format: cell-based, human; details: hsa-miR-34a (head: 30 nM), electroporation, 72 hours, normalized to NC (100%)
Source text: as §1
Lipid-based reverse transfections were carried out in triplicate according to a published protocol (Ovcharenko et al., 2005) and the following parameters: cells (5,000-12,000 per 96 well), 0.1-0.2 μl Lipofectamine™ 2000 (cat. no. 11668-019, Invitrogen Corp., Carlsbad, Calif., USA) in 20 μl OptiMEM (Invitrogen), 30 nM final concentration of miRNA in 100 μl. Electroporation of H226 cells was carried out using the BioRad Gene Pulser Xcell™ instrument (BioRad Laboratories Inc., Hercules, Calif., USA) with the following settings: 5×10^6 cells with 5 μg miRNA in 200 μl OptiMEM (1.6 μM miRNA), square wave pulse at 250 V for 5 ms. Electroporated H226 cells were seeded at 7,000 cells per 96-well in a total volume of 100 μl. All cells except for Calu-3 cells were harvested 72 hours post transfection or electroporation for assessment of cellular proliferation. Calu-3 cells were harvested 10 days post transfection. Proliferation assays were performed using Alamar Blue (Invitrogen) following the manufacturer's instructions. As a control for inhibition of cellular proliferation, siRNA against the motor protein kinesin 11, also known as Eg5, was used. […]

[6] = areas with viable cells in treated PPC-1 tumors

## hsa-miR-34a: synthetic miRNA; mature sequence UGGCAGUGUCUUAGCUGGUUGUU (MIMAT0000255; SEQ ID NO:1) (synthetic miRNA, chemistry not given here)
Jurkat
  programmed cell death (apoptosis): increased
[1]; average over eight lung cancer cell lines, relative to negative control miRNA
  average inhibition of cellular proliferation: 25.30%
[1]; lung cancer cell lines
  growth-inhibitory activity compared with etoposide: comparable to that of etoposide at concentrations ≧10 μM
PPC-1 tumors; PPC-1 tumors
  tumor histology (hematoxylin and eosin): consisted mostly of matrigel with cellular debris and sparsely distributed cells
PPC-1 tumors; [6]
  Ki-67 (proliferation marker) immunohistochemistry: reduced levels
  caspase 3 (apoptosis indicator) immunohistochemistry: increased levels
[2]
  proliferation: inhibits the proliferation
[3]; average over four prostate cancer cell lines, 30 nM, relative to negative control miRNA
  average inhibition of cellular proliferation: 37.18%
[3]; prostate cancer cell lines
  growth-inhibitory activity compared with siEg5: comparable to that of Eg5-directed siRNA
HeLa
  programmed cell death (apoptosis): decreased
Lung cancer cells (A549)
  proliferation: inhibits the proliferation
[4]
  proliferation: inhibits the proliferation
[5]
  proliferation: inhibits the proliferation
Normal human T cells
  proliferation: no anti-proliferative effect
H226 cells
  % proliferation: 89.50%
